Data: US10995070B2, “Acetyl-CoA carboxylase modulators” (Monsanto Technology LLC, priority 2013, dated 2021)

Key:
Fusarium moniloforme = assay: Fungal growth inhibition assay, F. moniliforme; assay type: cell-based; details: 48 h
Procedure: (§1) Spores were isolated from previously sub-cultured plates of Botrytis cinerea, Phytophthora capsici, Fusarium moniliforme, Fusarium viguliforme, Collectotrichum graminicola, and Diplodia maydis. All spores were filtered and collected in a sterile glass bowl to isolate the spores from the mycelia. The isolation and sub-culture plate condition for each pathogen is described below.
Spore isolation for F. moniliforme: A 1 week old PDA (potato dextrose agar, pre-mix) plate was removed from 26° C. incubator with a light/dark 12 hour cycle and the mycelia were treated with 5-10 ml of filter sterilized Triton X 100 (0.05%). The mycelia were scraped to re-suspend the spores. The spores were then collected in a sterile filter bowl containing a fluted piece of filter paper.
(§2) After spore isolation, pathogen spores were counted on a hemocytometer to calculate the spores/ml. In 17% V8 liquid media containing 3 g/L CaCO3, isolated spores were diluted to individual concentrations based on the growth curves at 48 hours of each pathogen. The spore concentrations for each pathogen were as follows: B. cinerea—10,000 sp/ml; P. capsici—300 sp/ml; F. monliforme—500 sp/ml; F. virguliforme—500 sp/ml; C. graminicola—3,000 sp/ml; and D. maydis—3,000 sp/ml.
(§3) Chemistry stocks were dissolved in DMSO at 2.5 mg/ml. Chemistry was diluted in a 96-well stock plate in five-fold dilutions to obtain a final concentration of 50, 10, and 2 ppm in vitro. The final concentration of the positive control after the five-fold dilutions was as follows: soraphen—0.5, 0.1, and 0.02 ppm. Negative controls on each plate included 2% DMSO, water containing spores and media, and a blank for background subtraction.
(§4) In a 96-well plate the spore solution, chemistries, and controls were combined to make the final solution concentrations mentioned above. Upon addition of the chemistry, an OD600 reading was done to assess chemical precipitation. The 96-well plates were incubated in plastic tubs containing wet paper towels under the following conditions, 25° C. in the dark for P. capsici and B. cinerea or 26° C. with light/dark cycle for C. graminicola, D. maydis, F. virguliforme, F. monliforme. Plate readings were repeated at 24 and 48 hrs. Visual ratings were performed at 24 and 48 hrs to check for precipitation and confirm efficacy. Visual and OD600 ratings of the chemistry at 48 hours were compared to the 2% DMSO control to determine the percent of pathogen growth inhibition.

Fusarium virguliforme = assay: Fungal growth inhibition assay, F. virguliforme; assay type: cell-based; details: 48 h
Procedure: as §1
Spore isolation for F. virguliforme: A 2-3 week old PDA (pre-mix) plate containing cefotaxime (100 mg/L) and kanamycin (50 mg/L) was removed from 26° C. incubator with a light/dark 12 hour cycle and the mycelia were treated with 5-10 ml of filter sterilized distilled water. The mycelia were scraped to re-suspend the spores. The spores were then collected in a sterile filter bowl containing a fluted piece of filter paper and poured into a conical tube.
as §2, §3, §4

Diplodia maydis = assay: Fungal growth inhibition assay, D. maydis; assay type: cell-based; details: 48 h
Procedure: as §1
Spore isolation for D. maydis: A 3-4 week old PDA (pre-mix) plate was removed from 26° C. incubator with a light/dark 12 hour cycle and the mycelia were treated with 6-7 ml of sterile distilled water, scraped into a sterile petri dish, and smashed to open the pycnidia. The spores were then collected in a sterile filter bowl containing a fluted piece of filter paper and poured into a conical tube.
as §2, §3, §4

[1] = test system: Collectotrichum graminicola; assay: Fungal growth inhibition assay, C. graminicola; assay type: cell-based; details: Colletotrichum graminicola, 48 h
Procedure: as §1
Spore isolation for C. graminicola: A 1-2 week old oatmeal agar (pre-mix) plate was removed from 26° C. incubator with a light/dark 12 hour cycle and the mycelia were treated with 10-15 ml of filter sterilized distilled water. The mycelia were scraped to re-suspend the spores. The spores were then collected in a sterile filter bowl containing a piece of sterile cheesecloth and poured into a conical tube.
as §2, §3, §4

Phytophthora capsici = assay: Fungal growth inhibition assay, P. capsici; assay type: cell-based; details: 48 h
Excerpt: as §1
Spore isolation for P. capsici: Three to five days prior to the assay a 2-3 week old V8 (17%)+CaCO3 (3 g/L)+20 g agar plate was removed from a dark 25° C. incubator and cut up into small chunks. One plate was separated into two deep well plates and rinsed with sterile distilled water three times. The cut up pieces were incubated under light in a sterile filter hood with 25 ml of sterile distilled water. On the day of the assay the water was removed and 5-7 ml of fresh sterile distilled water was added. One plate was incubated at 4° C. for 45-60 minutes and then placed at room temperature for about 45-60 minutes. The spores were collected in a sterile filter bowl containing a fluted piece of filter paper. The spores were vortexed in a conical tube for 30-60 seconds to remove the flagella of the zoospores after isolation.
as §2, §3, §4

[2] = biological target: Ustilago maydis acetyl CoA carboxylase (ACCase) (Ustilago maydis, UniProt A0A0D1DYD5); assay: ACCase enzymatic assay (coupled PK/LDH, NADH OD340); assay type: biochemical; details: read-out: ACCase Inhibitory Activity IC50
Chain of Ustilago maydis acetyl CoA carboxylase (ACCase) (A0A0D1DYD5 1-2185): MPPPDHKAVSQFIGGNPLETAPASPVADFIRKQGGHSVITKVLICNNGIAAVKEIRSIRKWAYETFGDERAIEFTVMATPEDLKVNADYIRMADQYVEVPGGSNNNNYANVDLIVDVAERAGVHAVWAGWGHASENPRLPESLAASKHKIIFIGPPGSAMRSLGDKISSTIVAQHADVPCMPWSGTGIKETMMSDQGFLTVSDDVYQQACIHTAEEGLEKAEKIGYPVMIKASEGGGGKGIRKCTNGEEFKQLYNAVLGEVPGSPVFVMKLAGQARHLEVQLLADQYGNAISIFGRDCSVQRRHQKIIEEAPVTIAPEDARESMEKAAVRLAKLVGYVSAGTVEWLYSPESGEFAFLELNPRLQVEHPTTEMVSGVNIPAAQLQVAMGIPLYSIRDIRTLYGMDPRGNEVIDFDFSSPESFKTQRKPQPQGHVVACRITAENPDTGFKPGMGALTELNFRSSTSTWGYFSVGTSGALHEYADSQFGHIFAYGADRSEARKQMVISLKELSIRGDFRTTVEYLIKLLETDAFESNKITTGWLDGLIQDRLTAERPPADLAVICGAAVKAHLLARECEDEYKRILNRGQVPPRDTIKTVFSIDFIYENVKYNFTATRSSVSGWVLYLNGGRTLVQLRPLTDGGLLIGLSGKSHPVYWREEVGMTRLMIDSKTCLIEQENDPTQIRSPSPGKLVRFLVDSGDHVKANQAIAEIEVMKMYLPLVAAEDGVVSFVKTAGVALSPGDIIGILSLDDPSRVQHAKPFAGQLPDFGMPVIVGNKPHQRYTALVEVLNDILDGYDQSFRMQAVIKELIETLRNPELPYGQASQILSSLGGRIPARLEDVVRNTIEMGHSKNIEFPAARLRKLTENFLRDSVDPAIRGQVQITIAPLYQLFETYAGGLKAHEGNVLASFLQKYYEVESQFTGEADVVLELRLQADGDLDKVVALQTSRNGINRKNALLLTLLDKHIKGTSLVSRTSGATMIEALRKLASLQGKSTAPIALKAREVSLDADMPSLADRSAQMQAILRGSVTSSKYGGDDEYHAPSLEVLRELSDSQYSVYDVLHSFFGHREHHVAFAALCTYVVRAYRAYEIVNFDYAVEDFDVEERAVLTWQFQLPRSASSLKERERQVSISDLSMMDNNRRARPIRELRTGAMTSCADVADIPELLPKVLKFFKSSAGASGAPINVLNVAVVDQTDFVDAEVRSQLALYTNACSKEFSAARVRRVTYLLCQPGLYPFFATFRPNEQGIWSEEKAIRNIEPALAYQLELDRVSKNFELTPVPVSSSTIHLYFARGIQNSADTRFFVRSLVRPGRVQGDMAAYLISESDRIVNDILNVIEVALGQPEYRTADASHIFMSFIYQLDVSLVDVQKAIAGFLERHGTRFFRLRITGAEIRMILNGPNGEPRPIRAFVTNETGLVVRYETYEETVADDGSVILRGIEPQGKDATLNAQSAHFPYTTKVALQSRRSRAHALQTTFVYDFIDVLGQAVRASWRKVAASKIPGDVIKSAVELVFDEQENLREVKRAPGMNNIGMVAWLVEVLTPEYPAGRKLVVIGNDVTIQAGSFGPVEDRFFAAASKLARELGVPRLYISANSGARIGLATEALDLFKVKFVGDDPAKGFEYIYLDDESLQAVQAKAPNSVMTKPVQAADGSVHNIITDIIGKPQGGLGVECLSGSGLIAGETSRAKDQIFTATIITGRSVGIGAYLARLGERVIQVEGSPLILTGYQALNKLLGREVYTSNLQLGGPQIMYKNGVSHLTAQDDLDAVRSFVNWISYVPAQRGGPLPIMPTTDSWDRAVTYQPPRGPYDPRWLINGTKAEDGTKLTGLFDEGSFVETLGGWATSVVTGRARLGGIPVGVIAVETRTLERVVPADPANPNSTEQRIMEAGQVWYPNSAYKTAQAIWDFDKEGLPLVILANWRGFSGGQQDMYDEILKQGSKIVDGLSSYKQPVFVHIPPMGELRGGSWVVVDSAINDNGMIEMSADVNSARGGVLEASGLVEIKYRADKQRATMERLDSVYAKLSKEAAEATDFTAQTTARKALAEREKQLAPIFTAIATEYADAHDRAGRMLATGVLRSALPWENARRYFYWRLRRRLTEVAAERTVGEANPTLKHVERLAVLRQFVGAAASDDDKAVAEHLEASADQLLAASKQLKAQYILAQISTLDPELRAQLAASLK
Procedure: Ustilago maydis acetyl CoA carboxylase (ACCase) was cloned, expressed, and purified as described (Weatherly et al, Biochem. J., 2004) and the test compounds were tested in a 96-well plate format. Primary in vitro screening consisted of obtaining dose response data at 100, 33, 10, and 1 μM inhibitor. Actives in the primary screen were re-tested to establish IC50 values.
Direct detection of the conversion of acetyl CoA to malonyl CoA by ACCase was not feasible, but during this process ATP is converted to ADP which allowed for detection through a standard reaction coupling with ADP recycling to the oxidation of NADH. Thus, ACCase activity was measured via kinetic OD340 measurements of the conversion of NADH to NAD in a coupled reaction involving the conversion of phosphoenolpyruvate (PEP) to lactate.
The complete 200 ul reaction mixture contained 52.5 mM HEPES (pH8), 2.625 mM MgCl2, 1 mM ATP, 0.525 mM DTT, 11 mM NaHCO3, 1% DMSO with or without inhibitor, 1× pyruvate kinase/lactate dehydrogenase (PK/LDH), 0.3 mM NADH, 0.5 mM PEP, and 5 μg ACCase. The reactions were incubated at 30° C. for 10 minutes and then initiated by the addition of 0.33 mM acetyl CoA. The initiated reactions were read immediately via plate reader at OD340 and kinetic readings were acquired every 20 s for 15 minutes while keeping the temperature at 30° C.
A slope of the kinetic curve was determined by using the 2 to 7 minute data which was then calculated as percent inhibition relative to the no inhibitor control.
The primary screens were conducted in duplicate and the IC50's conducted in triplicate. Averages were reported along with standard deviation calculation to generate error bars.
Each plate contained its own controls and consisted of a DMSO only control, 5-fold titration series of soraphen from 2 μM to 3.2 nM, and an ADP coupled reaction control. […]
A slope of the kinetic curve was determined by using the 2 to 7 minute data which was then calculated as percent inhibition relative to the no inhibitor control. Those compounds which had no significant PK/LDH inhibition at or above the IC50 in the ACCase assay, were considered to be valid modulators of only ACCase.

## O=C(O)Cc1ccc(-c2nc3ccccc3c(-c3ccccc3)c2Cl)s1 [Formula Ib-ii, 2-(5-(3-chloro-4-phenylquinolin-2-yl)thiophen-2-yl)acetic acid]
Fusarium moniloforme
  inhibition at 2 ppm: 39%
  inhibition at 10 ppm: 45%
Fusarium virguliforme
  inhibition at 2 ppm: 31%
  inhibition at 10 ppm: 41%
Diplodia maydis
  inhibition at 2 ppm: 55%
  inhibition at 10 ppm: 70%
[1]
  inhibition at 2 ppm: 0%
  inhibition at 10 ppm: 67%
  inhibition at 50 ppm: 78%
Phytophthora capsici
  inhibition at 2 ppm: 18%
  inhibition at 10 ppm: 31%
  inhibition at 50 ppm: 49%
[2]
  IC50: 110 nM

## O=C(O)Cc1ccc(-c2cc(-c3ccccc3)c3ccccc3n2)s1 [Formula Ib-iv, 2-(5-(4-phenylquinolin-2-yl)thiophen-2-yl)acetic acid]
Fusarium moniloforme
  inhibition at 2 ppm: 17%
  inhibition at 10 ppm: 31%
Fusarium moniloforme; 50 ppm
  inhibition at 50 ppm: 36%
Fusarium virguliforme
  inhibition at 2 ppm: 4%
  inhibition at 10 ppm: 29%
Diplodia maydis
  inhibition at 2 ppm: 8%
  inhibition at 10 ppm: 45%
Diplodia maydis; 50 ppm
  inhibition at 50 ppm: 89%
[1]
  inhibition at 2 ppm: 0%
  inhibition at 10 ppm: 53%
  inhibition at 50 ppm: 97%
Phytophthora capsici
  inhibition at 2 ppm: 0%
  inhibition at 10 ppm: 11%
  inhibition at 50 ppm: 80%
[2]
  IC50: 145 nM
